Assays:
Jun/AP1activation = assay: Selectivity: unrelated signal transduction pathway Jun/AP1 activation; type: cell-based
MEF-SuFu−/− cells = assay: Gli1 mRNA (quantitative RT-PCR) in MEF-SuFu−/− cells; type: cell-based, mouse; conditions: different concentrations, 48 h
Procedure: FIG. 9. Confluent MEF-SuFu^−/− cells were treated with DMSO (0.5%, vehicle), GANT61 (10 μM, as positive control) or different concentrations of Glabrescione B for 48 h. Gli1 mRNA levels were determined by quantitative RT-PCR, normalizing to HPRT expression. Error bars indicate SD.
To analyze the antagonist properties of Glabrescione B under more physiological conditions, the inventors used MEF-Ptch^−/− cells, embryo fibroblasts derived from Ptch^−/− mouse, in which the activation of Hh signaling is consequence of Ptch1 deletion. Since Patched acts as upstream repressor of SMO, inhibition of the Hedgehog pathway from Patched is prevented and the Hedgehog pathway is constitutively activated in this cell lines, which turned out to be a reliable cellular model for studying the effect of Hedgehog inhibitors. […]
To further elucidate the concept of downstream pathway inhibition by Glabrescione B, the inventors used MEF-SuFu^−/− cells (a kind gift by R. Toftgard, Karolinska Institutet, Sweden, Svärd, J. et al, 2006), in which the downstream Hh pathway activation is consequence of SuFu genetic ablation. Confluent cells were treated with Glabrescione B at the amount indicated in the FIG. 9 and Gli1 expression levels were determined by quantitative RT-PCR as previously described. […]

[1] = NMR monitoring of direct interaction with Zn2+; type: binding
Jurkat T leukemia cells = assay: Effect on Hh-independent Jurkat cells; type: cell-based
Gli1-GST fusion protein = assay: NMR relaxation speed of Glabrescione B protons in presence of Gli1-GST; type: binding; conditions: 0.412 mM
Procedure: A sample of Glabrescione B 0.412 mM in DMSO-d6 was prepared and added to 20 μL of a solution of Gli1-GST (Glutathione S-transferase) fusion protein at 5 μg/μL, providing a molar ratio of Glabrescione B/Gli1-GST of 150:1. […] In experimental conditions, Glabrescione B protons experiencing the most significant perturbation of the relaxation speed, due to the presence of Gli1-GST, belong to the ring A of the isoflavone nucleus, namely aromatic protons H1, H3 and those belonging to methoxyl groups 2′ and 4′.

[2] = test system: cerebellar granule progenitor cells (GCPs); assay: BrdU incorporation in Shh-treated cerebellar granule cell progenitors; type: cell-based, mouse; conditions: Shh 3 μg/ml, 48 h
Procedure: FIG. 10. Cerebellar granule progenitor cells (GCPs) were treated with Shh (Recombinant mouse Sonic Hedgehog, amino-terminal peptide, 3 μg/ml) and with different concentrations of Glabrescione B, as indicated, for 48 h. Inhibition of cell proliferation was measured as percentage of BrdU incorporation in comparison to DMSO (0.5%, vehicle) treated sample.
A biological assay was performed in cerebellar neural progenitors cells obtained from 4-days-old mice, when they are actively proliferating under Sonic Hedgehog (Shh) stimulus. As expected, treatment of these cells with Shh increased the proliferation rate, as evaluated by BrdU-incorporation assay. […] To further evaluate the antiproliferative effect of Glabrescione B, human MB cell lines D283 were treated with Glabrescione B at different concentrations. […] The biomolecule was active, as shown by the growth rate inhibition (70-95%).
Another experiment to assess whether Glabrescione B also regulates Hh pathway in a physiological context was carried out in cerebellar granule cells precursors (GCPs) isolated from 4-days-old mice according to established protocols (Wechsler-Reya and Scott, 1999). Briefly, cerebella were removed aseptically, cut into small pieces, and incubated at room temperature for 15 min in digestion buffer [Dulbecco's PBS (Invitrogen, Gaithersburg, Md.) with 0.1% trypsin, 0.2% EDTA, and 100 μg/ml DNase]. […]

In the case of `COc1cc(OC)c2c(=O)c(-c3ccc(OCC=C(C)C)c(OCC=C(C)C)c3)coc2c1` [Glabrescione B, 3-(3′,4′-bis(3-methylbut-2-enyloxy)phenyl)-5,7-dimethoxy-4H-chromen-4-one], the inhibition at 30 µM (Jun/AP1activation) is reported as 0%, the “Gli1 expression levels (quantitative RT-PCR)” value (MEF-SuFu−/− cells) is reported as “significant reduction of the high expression levels of Gli1” and the “binding to Zn2+ (NMR)” value [1] is reported as “not capable of binding to the metal ions”. The “effect on Jurkat cells” value (Jurkat T leukemia cells) was “no effect”, the “Normalized relaxation speed ΔR/Rf, GlaB:Gli1-GST 1:150” value (shortened to “Normalized relaxation speed ΔR/Rf”) (Gli1-GST fusion protein; proton 1) was 0.341 and the “Normalized relaxation speed ΔR/Rf” value (Gli1-GST fusion protein; proton 2′) was 0.267. For the same molecule, the “Normalized relaxation speed ΔR/Rf” value (Gli1-GST fusion protein; proton 3) was 0.206, the “Normalized relaxation speed ΔR/Rf” value (Gli1-GST fusion protein; proton 4′) was 0.482 and the “Normalized relaxation speed ΔR/Rf” value (Gli1-GST fusion protein; proton 8) was 0.028. The “Normalized relaxation speed ΔR/Rf” value (Gli1-GST fusion protein; proton 11) was 0.286, the “Normalized relaxation speed ΔR/Rf” value (Gli1-GST fusion protein; proton 12) was 0 and the “Normalized relaxation speed ΔR/Rf” value (Gli1-GST fusion protein; proton 15) was 0.329. The “Normalized relaxation speed ΔR/Rf” value (Gli1-GST fusion protein; proton 19) was 0 and the “Shh-induced proliferation (BrdU incorporation)” value [2] was “antagonized this effect”.
